# Reference: patent publication US20220331303A1, “USE OF AN OREXIN 2 RECEPTOR AGONIST FOR THE TREATMENT OF EXCESSIVE SLEEPINESS” (Takeda Pharmaceutical Company Limited, priority 2019, published 2022)
# “Also recorded” adds a separate entry of the source. Read-outs that look alike come from different tables or passages of the source.
# Experiment: Plasma PK of Compound A after a single 9-hour IV infusion in sleep-deprived healthy male subjects
# Type: in vivo, human
# Details: for concentration at 3 h: 3 h post infusion end
# Description: This was a phase 1b, single-center, randomized, double-blind, double-dummy, placebo- and active-controlled, 4-period Williams design crossover study to evaluate the PK, PD, and safety of Compound A in sleep-deprived healthy volunteers. Compound A was administered as a 9-hour IV infusion.
# Healthy adult male subjects aged 18 to 40 years, inclusive, who satisfied the inclusion and exclusion criteria were enrolled in the trial. On Day 1 of treatment period 1, eligible subjects were equally randomized to 4 treatment sequence groups (sequence 1 to 4) which defined the order of administration for Compound A LD, Compound A HD (both delivered as a 9-hour IV infusion), modafinil 300 mg, and placebo.
# During the day before dosing on Day 1, participants were administered the KSS at scheduled timepoints. A practice MWT session was performed on Day 1 treatment period 1 (only once during the entire study) to familiarize subjects with the procedures. Study drug was administered in the clinic in the evening on Day 1 of each treatment period. Subjects underwent the MWT and KSS at specified timepoints after the start of the infusion. Subjects were required to stay awake between the MWT tests. Following completion of the IV infusion on Day 2, subjects underwent an additional MWT test. When the final MWT test and cognitive testing were completed, subjects were allowed to sleep (recovery sleep) for approximately 6 hours. PSG recording was collected during this time. Subjects were discharged from the unit after completion on Day 2 with continuing actigraphy upon discharge (to begin on Day −6 before the next treatment period). The interval between each subsequent treatment period was at least 7 days to ensure that the subject's circadian rhythm had returned to a normal cycle. Subject's vital signs, including BP, were monitored during the dosing and testing period. Blood samples for determination of Compound A plasma concentrations were collected at specified timepoints on Days 1 and 2 of each treatment period. Subjects completed the Columbia-Suicide Severity Rating Scale (C-SSRS) during screening, before study drug administration, and before discharge on Day 2 of each treatment period.
# Plasma concentrations were tabulated, and descriptive statistics were calculated for each Compound A dose level and are listed in Tables 3-6 for Compound A. The mean plasma concentration versus time plots for Compound A are shown in FIG. 1.
# [1] = 2.55-fold increase in dose (44 to 112 mg)
smiles,measurement,setting,value
"COC(=O)N1CCC[C@H](NS(C)(=O)=O)[C@@H]1CO[C@H]1CC[C@@H](c2ccccc2)CC1 [Compound A, methyl (2R,3S)-3-((methylsulfonyl)amino)-2-(((cis-4-phenylcyclohexyl)oxy)methyl)piperidine-1-carboxylate]",Fold increase in AUClast,[1],2.45 fold
same,Fold increase in AUC∞,[1],2.46 fold
same,Fold increase in Ceoi,[1],2.45 fold
same,Fold increase in Cmax,[1],2.52 fold
same,Dose proportionality of systemic exposure,between 44 and 112 mg dose levels,approximately dose-proportionately; also recorded: approximately dose proportionately
same,Mean plasma concentration as share of the observed maximum concentration,"by 4 hours after start of infusion, 44 mg and 112 mg",more than 80%
same,concentration at 1 h,"male, human, plasma, iv, 44 mg, 44 mg 9-h IV infusion, 1 h post infusion start, read-out: Plasma concentration (GM)",63.1 ng/mL
same,concentration at 1 h,"male, human, plasma, iv, 44 mg, 44 mg 9-h IV infusion, 1 h post infusion start, read-out: Plasma concentration (Mean)",64.4 ng/mL
same,concentration at 1 h,"male, human, plasma, iv, 44 mg, 44 mg 9-h IV infusion, 1 h post infusion start, read-out: Plasma concentration (Median)",65.5 ng/mL
same,concentration at 2 h,"male, human, plasma, iv, 44 mg, 44 mg 9-h IV infusion, 2 h post infusion start, read-out: Plasma concentration (GM)",72.9 ng/mL
same,concentration at 2 h,"male, human, plasma, iv, 44 mg, 44 mg 9-h IV infusion, 2 h post infusion start, read-out: Plasma concentration (Mean)",74 ng/mL
same,concentration at 2 h,"male, human, plasma, iv, 44 mg, 44 mg 9-h IV infusion, 2 h post infusion start, read-out: Plasma concentration (Median)",72.6 ng/mL
same,concentration at 4 h,"male, human, plasma, iv, 44 mg, 44 mg 9-h IV infusion, 4 h post infusion start, read-out: Plasma concentration (GM)",88.3 ng/mL
same,concentration at 4 h,"male, human, plasma, iv, 44 mg, 44 mg 9-h IV infusion, 4 h post infusion start, read-out: Plasma concentration (Mean)",89.3 ng/mL
same,concentration at 4 h,"male, human, plasma, iv, 44 mg, 44 mg 9-h IV infusion, 4 h post infusion start, read-out: Plasma concentration (Median)",88.2 ng/mL
same,concentration at 6 h,"male, human, plasma, iv, 44 mg, 44 mg 9-h IV infusion, 6 h post infusion start, read-out: Plasma concentration (GM)",97.8 ng/mL
same,concentration at 6 h,"male, human, plasma, iv, 44 mg, 44 mg 9-h IV infusion, 6 h post infusion start, read-out: Plasma concentration (Mean)",98.7 ng/mL
same,concentration at 6 h,"male, human, plasma, iv, 44 mg, 44 mg 9-h IV infusion, 6 h post infusion start, read-out: Plasma concentration (Median)",97.4 ng/mL
same,concentration at 9 h,"male, human, plasma, iv, 44 mg, 44 mg 9-h IV infusion, 9 h post infusion start, read-out: Plasma concentration (GM)",102 ng/mL
same,concentration at 9 h,"male, human, plasma, iv, 44 mg, 44 mg 9-h IV infusion, 9 h post infusion start, read-out: Plasma concentration (Mean)",103 ng/mL
same,concentration at 9 h,"male, human, plasma, iv, 44 mg, 44 mg 9-h IV infusion, 9 h post infusion start, read-out: Plasma concentration (Median)",101 ng/mL
same,AUC(0-t),"male, human, plasma, iv, 44 mg, 44 mg [LD] single 9-hour IV infusion, read-out: AUClast (GM)",933 ng·h/mL
same,AUC(0-t),"male, human, plasma, iv, 44 mg, 44 mg [LD] single 9-hour IV infusion, read-out: AUClast (Mean)",940 ng·h/mL
same,AUC(0-t),"male, human, plasma, iv, 44 mg, 44 mg [LD] single 9-hour IV infusion, read-out: AUClast (Median)",888 ng·h/mL
same,AUC(0-inf),"male, human, plasma, iv, 44 mg, 44 mg [LD] single 9-hour IV infusion, read-out: AUC∞ (GM)",955 ng·h/mL
same,AUC(0-inf),"male, human, plasma, iv, 44 mg, 44 mg [LD] single 9-hour IV infusion, read-out: AUC∞ (Mean)",964 ng·h/mL
same,AUC(0-inf),"male, human, plasma, iv, 44 mg, 44 mg [LD] single 9-hour IV infusion, read-out: AUC∞ (Median)",911 ng·h/mL
same,clearance,"male, human, plasma, iv, 44 mg, 44 mg [LD] single 9-hour IV infusion, read-out: CL (Mean) (converted)",773 mL/min
same,clearance,"male, human, plasma, iv, 44 mg, 44 mg [LD] single 9-hour IV infusion, read-out: CL (Median) (converted)",805 mL/min
same,Cmax,"male, human, plasma, iv, 44 mg, 44 mg [LD] single 9-hour IV infusion, read-out: Cmax (GM)",106 ng/mL
same,Cmax,"male, human, plasma, iv, 44 mg, 44 mg [LD] single 9-hour IV infusion, read-out: Cmax (Mean)",106 ng/mL
same,Cmax,"male, human, plasma, iv, 44 mg, 44 mg [LD] single 9-hour IV infusion, read-out: Cmax (Median)",102 ng/mL
same,Vd,"male, human, plasma, iv, 44 mg, 44 mg [LD] single 9-hour IV infusion, read-out: Vss (Mean)",107 L
same,Vd,"male, human, plasma, iv, 44 mg, 44 mg [LD] single 9-hour IV infusion, read-out: Vss (Median)",99.2 L
same,Vd,"male, human, plasma, iv, 44 mg, 44 mg [LD] single 9-hour IV infusion, read-out: Vz (Mean)",207 L
same,Vd,"male, human, plasma, iv, 44 mg, 44 mg [LD] single 9-hour IV infusion, read-out: Vz (Median)",211 L
same,Tmax,"male, human, plasma, iv, 44 mg, 44 mg [LD] single 9-hour IV infusion, read-out: tmax (Mean)",8.15 h
same,Tmax,"male, human, plasma, iv, 44 mg, 44 mg [LD] single 9-hour IV infusion, read-out: tmax (Median)",9 h
same,concentration at 0.17 h,"male, human, plasma, iv, 112 mg, 112 mg 9-h IV infusion, 0.17 h post infusion end, read-out: Plasma concentration (GM)",194 ng/mL
same,concentration at 0.5 h,"male, human, plasma, iv, 112 mg, 112 mg 9-h IV infusion, 0.5 h post infusion end, read-out: Plasma concentration (GM)",122 ng/mL
same,concentration at 1 h,"male, human, plasma, iv, 112 mg, 112 mg 9-h IV infusion, 1 h post infusion end, read-out: Plasma concentration (GM)",97.5 ng/mL
same,concentration at 2 h,"male, human, plasma, iv, 112 mg, 112 mg 9-h IV infusion, 2 h post infusion end, read-out: Plasma concentration (GM)",56.7 ng/mL
same,concentration at 3 h,"male, human, plasma, iv, 112 mg, 112 mg 9-h IV infusion, read-out: Plasma concentration (GM)",50.8 ng/mL
same,concentration at 3 h,"male, human, plasma, iv, 112 mg, 112 mg 9-h IV infusion, read-out: Plasma concentration (Median)",54 ng/mL
same,concentration at 4 h,"male, human, plasma, iv, 112 mg, 112 mg 9-h IV infusion, 4 h post infusion end, read-out: Plasma concentration (GM)",40.4 ng/mL
same,concentration at 4 h,"male, human, plasma, iv, 112 mg, 112 mg 9-h IV infusion, 4 h post infusion end, read-out: Plasma concentration (Median)",44.7 ng/mL
same,concentration at 6 h,"male, human, plasma, iv, 112 mg, 112 mg 9-h IV infusion, 6 h post infusion end, read-out: Plasma concentration (GM)",23.6 ng/mL
same,concentration at 6 h,"male, human, plasma, iv, 112 mg, 112 mg 9-h IV infusion, 6 h post infusion end, read-out: Plasma concentration (Median)",23.4 ng/mL
same,concentration at 9 h,"male, human, plasma, iv, 112 mg, 112 mg 9-h IV infusion, 9 h post infusion end, read-out: Plasma concentration (GM)",13 ng/mL
same,concentration at 9 h,"male, human, plasma, iv, 112 mg, 112 mg 9-h IV infusion, 9 h post infusion end, read-out: Plasma concentration (Median)",11.9 ng/mL
same,AUC(0-t),"male, human, plasma, iv, 112 mg, 112 mg [HD] single 9-hour IV infusion, read-out: AUClast (GM)",2300 ng·h/mL
same,AUC(0-t),"male, human, plasma, iv, 112 mg, 112 mg [HD] single 9-hour IV infusion, read-out: AUClast (Mean)",2300 ng·h/mL
same,AUC(0-t),"male, human, plasma, iv, 112 mg, 112 mg [HD] single 9-hour IV infusion, read-out: AUClast (Median)",2300 ng·h/mL
same,AUC(0-inf),"male, human, plasma, iv, 112 mg, 112 mg [HD] single 9-hour IV infusion, read-out: AUC∞ (GM)",2360 ng·h/mL
same,AUC(0-inf),"male, human, plasma, iv, 112 mg, 112 mg [HD] single 9-hour IV infusion, read-out: AUC∞ (Mean)",2370 ng·h/mL
same,AUC(0-inf),"male, human, plasma, iv, 112 mg, 112 mg [HD] single 9-hour IV infusion, read-out: AUC∞ (Median)",2380 ng·h/mL
same,clearance,"male, human, plasma, iv, 112 mg, 112 mg [HD] single 9-hour IV infusion, read-out: CL (Mean) (converted)",793 mL/min
same,clearance,"male, human, plasma, iv, 112 mg, 112 mg [HD] single 9-hour IV infusion, read-out: CL (Median) (converted)",785 mL/min
same,Cmax,"male, human, plasma, iv, 112 mg, 112 mg [HD] single 9-hour IV infusion, read-out: Cmax (GM)",266 ng/mL
same,Cmax,"male, human, plasma, iv, 112 mg, 112 mg [HD] single 9-hour IV infusion, read-out: Cmax (Mean)",268 ng/mL
same,Cmax,"male, human, plasma, iv, 112 mg, 112 mg [HD] single 9-hour IV infusion, read-out: Cmax (Median)",260 ng/mL
same,Vd,"male, human, plasma, iv, 112 mg, 112 mg [HD] single 9-hour IV infusion, read-out: Vss (Mean)",112 L
same,Vd,"male, human, plasma, iv, 112 mg, 112 mg [HD] single 9-hour IV infusion, read-out: Vss (Median)",112 L
same,Vd,"male, human, plasma, iv, 112 mg, 112 mg [HD] single 9-hour IV infusion, read-out: Vz (Mean)",223 L
same,Vd,"male, human, plasma, iv, 112 mg, 112 mg [HD] single 9-hour IV infusion, read-out: Vz (Median)",216 L
same,Tmax,"male, human, plasma, iv, 112 mg, 112 mg [HD] single 9-hour IV infusion, read-out: tmax (Mean)",7.88 h
same,Tmax,"male, human, plasma, iv, 112 mg, 112 mg [HD] single 9-hour IV infusion, read-out: tmax (Median)",9 h
same,half-life,"male, human, plasma, after end of 9-h IV infusion, biphasic decline, read-out: Mean terminal half-life (t1/2z) (converted)",~3 h
